Measured values from ChEMBL document CHEMBL1201862, “PubChem BioAssay data set” (2004).
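Growth conditions: 96-well plates. Treatment: test compound, 48 hours, 5 concentrations. Analysis: linear interpolation between bracketing concentrations; unreached endpoints set to highest concentration. Here, GI50 denotes the concentration required for 50% inhibition of growth.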 Calls of active or inactive are those of the source. Cut-off read from the data, not from the text of the source: active = GI50 up to about 1.1 µM and inactive = higher.

Legend:
Test in all cases: NCI-60 cell line screen, 48 h
[1] = system: ACHN
[2] = system: BT-549
[3] = system: CAKI-1
[4] = system: HCC 2998
[5] = system: HL-60
[6] = system: IGROV-1
[7] = system: KM12
[8] = system: LOX IMVI
[9] = system: MCF7
[10] = system: MDA-MB-231
[11] = system: MDA-N
[12] = system: Malme-3M
[13] = system: NCI-H23
[14] = system: RPMI-8226
[15] = system: SF-268
[16] = system: SK-MEL-28
[17] = system: SNB-19
[18] = system: SNB-75
[19] = system: U-251
[20] = system: UO-31

Measured: GI50

CC(=O)OCC1OC(O/C=C(\CN=[N+]=[N-])C(C)=O)C(OC(C)=O)C(OC(C)=O)C1OC(C)=O (stereo not given)
inactive: [1] 3.4 µM | [2] 13.4 µM | [3] 3.01 µM | [4] 19 µM | [5] 2.03 µM | [6] 15.6 µM | [7] 18.7 µM | [8] 3.47 µM | [9] 7.62 µM | [10] 12.7 µM | [11] 8.85 µM | [12] 3.05 µM | [13] 9.44 µM | [14] 1.74 µM | [15] 21.6 µM | [16] 18.9 µM | [17] 27.6 µM | [18] 13.5 µM | [19] 12.2 µM | [20] 8.28 µM

O=C(O)c1cc(/N=N/c2ccc([As](=O)(O)O)cc2)ccc1O
inactive: [1] > 100 µM | [2] > 100 µM | [3] > 100 µM | [4] > 100 µM | [5] > 100 µM | [6] > 100 µM | [7] > 100 µM | [8] > 100 µM | [9] > 100 µM | [10] > 100 µM | [11] > 100 µM | [12] > 100 µM | [13] > 100 µM | [14] > 100 µM | [15] > 100 µM | [16] > 100 µM | [17] > 100 µM | [18] > 100 µM | [19] > 100 µM | [20] > 100 µM

O=C(/C=C/c1ccccc1)CCC1C(=O)c2ccccc2C1=O
inactive: [1] > 100 µM | [2] > 100 µM | [3] > 100 µM | [4] > 100 µM | [5] > 100 µM | [6] > 100 µM | [7] > 100 µM | [8] > 100 µM | [9] > 100 µM | [10] > 100 µM | [11] 43.8 µM | [12] > 100 µM | [13] > 100 µM | [14] 73.6 µM | [15] > 100 µM | [16] > 100 µM | [17] > 100 µM | [18] 19.7 µM | [19] > 100 µM | [20] > 100 µM
